Results on 9 compounds are retold here after ChEMBL document CHEMBL1124275, “Synthesis and evaluation of multisubstrate inhibitors of an oncogene-encoded tyrosine-specific protein kinase. 1” (J Med Chem, 1988).

The nature of assay [1]: Inhibition of Phosphorylase (serine) Kinase activity.
For assay [2], the target named is T1, Tyrosine-protein kinase transforming protein Abl (Abelson murine leukemia virus, UniProt P00521).
T1 sequence (P00521 whole entry): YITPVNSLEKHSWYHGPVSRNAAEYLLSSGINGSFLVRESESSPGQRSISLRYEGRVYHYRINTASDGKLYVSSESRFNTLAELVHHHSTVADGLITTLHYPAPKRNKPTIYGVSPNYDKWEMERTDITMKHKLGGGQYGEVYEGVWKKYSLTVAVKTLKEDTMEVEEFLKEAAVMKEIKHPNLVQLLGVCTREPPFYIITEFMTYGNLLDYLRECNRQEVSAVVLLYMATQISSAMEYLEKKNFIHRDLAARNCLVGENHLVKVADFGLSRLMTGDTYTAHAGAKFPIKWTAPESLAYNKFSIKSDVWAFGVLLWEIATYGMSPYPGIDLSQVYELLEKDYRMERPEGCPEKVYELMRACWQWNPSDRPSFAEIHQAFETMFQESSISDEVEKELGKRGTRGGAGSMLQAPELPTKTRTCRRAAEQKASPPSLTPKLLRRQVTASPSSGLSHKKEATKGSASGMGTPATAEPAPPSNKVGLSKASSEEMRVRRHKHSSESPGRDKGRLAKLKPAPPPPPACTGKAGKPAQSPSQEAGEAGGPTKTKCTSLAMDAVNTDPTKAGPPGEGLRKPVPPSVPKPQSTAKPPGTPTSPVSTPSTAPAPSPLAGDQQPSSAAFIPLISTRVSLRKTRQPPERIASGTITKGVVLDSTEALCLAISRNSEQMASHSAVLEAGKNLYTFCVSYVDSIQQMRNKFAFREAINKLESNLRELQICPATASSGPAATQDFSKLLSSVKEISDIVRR
The assay is described as follows: Inhibition of p60-vabl tyrosine kinase isolated from Abelson murine leukemia virus (A-MuLV).

Broadly, the IC50 is the point on the concentration scale where inhibition reaches its midpoint. Low values mean higher potency, high ones lower potency. `Nc1ncnc2c1ncn2[C@@H]1O[C@H](COC(=O)c2ccc(S(=O)(=O)Oc3ccccc3)cc2)[C@@H](O)[C@H]1O`: the IC50 in assay [1] amounted to 80 µM; in assay [2], 170 µM.

`Nc1ncnc2c1ncn2[C@@H]1O[C@H](COC(=O)c2ccc(S(=O)(=O)Nc3ccccc3)cc2)[C@@H](O)[C@H]1O`: the IC50 is 25 µM in assay [1] and 19 µM in assay [2]. For `Nc1ncnc2c1ncn2[C@@H]1O[C@H](COC(=O)c2ccc(S(=O)(=O)NCc3ccccc3)cc2)[C@@H](O)[C@H]1O`, the IC50 in assay [2] came out at 45 µM. For the compound `Nc1ncnc2c1ncn2[C@@H]1O[C@H](COC(=O)c2ccc(S(N)(=O)=O)cc2)[C@@H](O)[C@H]1O`, the IC50 in assay [1] is 60 µM; in assay [2] it was 120 µM. The corresponding values for `Nc1ncnc2c1ncn2[C@@H]1O[C@H](COC(=O)c2ccc(S(=O)(=O)F)cc2)[C@@H](O)[C@H]1O` are 250 µM and 150 µM. As to `CC(=O)NC(Cc1ccc(OS(=O)(=O)c2ccc(C(=O)OC[C@H]3O[C@@H](n4cnc5c(N)ncnc54)[C@H](O)[C@@H]3O)cc2)cc1)C(N)=O` (some centres undefined), in assay [2], the IC50 came out at 120 µM. Turning to `Nc1ncnc2c1ncn2[C@@H]1O[C@H](COC(=O)c2ccc(S(=O)(=O)NCCCc3ccccc3)cc2)[C@@H](O)[C@H]1O`, the IC50 in assay [1] was determined as 50 µM; in assay [2], 56 µM. Take `CS(=O)(=O)c1ccc(C(=O)OC[C@H]2O[C@@H](n3cnc4c(N)ncnc43)[C@H](O)[C@@H]2O)cc1`: in assay [2], the IC50 is 63 µM. The same measure, in the same setting: in the case of `Nc1ncnc2c1ncn2[C@@H]1O[C@H](COC(=O)c2ccc(S(=O)(=O)NCCc3ccccc3)cc2)[C@@H](O)[C@H]1O` it was 50 µM.
